Laboratory results: paper PMC11501026, “L-Arginine and asymmetric dimethylarginine (ADMA) transport across the mouse blood-brain and blood-CSF barriers: Evidence of saturable transport at both interfaces and CNS to blood efflux” (PLOS ONE, 2024)
Several values for one entry are separate records, joined by “and”; a condition that tells them apart may be missing. Equal values may be shown once. Where a name gives a salt, the structure may show the parent alone. Read-outs that look alike come from different tables or passages of the source.

Tests used:
Assay type in all cases: in vivo, mouse
[1] = test system: [^3H]-ADMA transport across the blood-brain and blood-CSF barriers; assay: cross-inhibition, in situ perfusion: [^3H]-ADMA with 100 μM unlabelled L-arginine; set-up: uptake into choroid plexus / uptake into frontal cortex / uptake into caudate nucleus / uptake into occipital cortex / uptake into hippocampus / uptake into hypothalamus / uptake into thalamus / uptake into cerebellum: unit not given here; settings: [3H] ADMA + [14C] Sucrose + 100uM Arg, 10 mins, Balb/c ♂, 5ml/min; individual mice
Protocol: (§1) Self-inhibition experiments were also performed. […] Cross-competition experiments were also performed.
(§2) The percentage change in the RTissue uptake values achieved in the absence or presence of an unlabelled inhibitor can be calculated by means of Eq 4.
(§3) %change=RTissue−RInhibition/RTissue×100 Eq 4
(§4) We define RInhibition as the RTissue uptake in the presence of an inhibitor in the artificial plasma.
(§5) A decrease in the uptake of radiolabelled solute in the presence of unlabelled inhibitor is indicative of a saturable influx transport system. Conversely, an increase in the uptake of radiolabelled solute in the presence of unlabelled inhibitor is indicative of a saturable efflux transport system.

[2] = test system: [3H]-ADMA transport across the blood-brain and blood-CSF barriers; assay: as above; set-up: uptake into choroid plexus / uptake into frontal cortex / uptake into caudate nucleus / uptake into occipital cortex / uptake into hippocampus / uptake into hypothalamus / uptake into thalamus / uptake into cerebellum: unit not given here; settings: male, Balb/c, mouse, other: in situ brain perfusion, 10 mins, Balb/c ♂, 5ml/min
Protocol: as §1, §2, §3, §4, §5

[3] = as above; set-up: uptake into choroid plexus / uptake into frontal cortex / uptake into caudate nucleus / uptake into occipital cortex / uptake into hippocampus / uptake into hypothalamus / uptake into thalamus / uptake into cerebellum: unit not given here; settings: male, Balb/c, mouse, other: in situ brain perfusion, with 100 µM unlabelled L-arginine, 10 mins, Balb/c ♂, 5ml/min
Protocol: as §1, §2, §3, §4, §5

[4] = capillary depletion analysis after in situ brain perfusion; set-up: [3H] ADMA and [14C] Sucrose uptake, homogenate / Difference (ADMA minus Sucrose), homogenate / [3H] ADMA and [14C] Sucrose uptake, supernatant / Difference (ADMA minus Sucrose), supernatant / uptake, homogenate / uptake, supernatant: unit not given here; settings: Balb/c ♂, 5ml/min
Protocol: The microvasculature within a sample of brain tissue can be separated from the brain parenchyma using capillary depletion analysis. Following perfusion, the remaining brain tissue after microdissection of the regions described above (typically 200–300 mg) underwent capillary depletion following a method modified for mouse. […]

[5] = CONTROL, 10 mins, individual mouse

uptake into choroid plexus [1]: 0.5896 and 0.666 and 0.4457 and 0.7681 | Kp at 10 min, 62.5 nM ([2]; caudate nucleus, with 100 µM unlabelled L-arginine, Difference (ADMA minus Sucrose), caudate nucleus, + 100uM Arg, mean): 0.0481 | Kp at 10 min, 62.5 nM ([2]; caudate nucleus, with 100 µM unlabelled L-arginine, [3H] ADMA + [14C] Sucrose + 100uM Arg, individual mice, read-out: uptake into caudate nucleus): 0.0565 | Kp at 10 min, 62.5 nM ([2]; caudate nucleus, with 100 µM unlabelled L-arginine, [3H] ADMA + [14C] Sucrose + 100uM Arg, mean, read-out: uptake into caudate nucleus): 0.0664 | Kp at 10 min, 62.5 nM ([2]; cerebellum, with 100 µM unlabelled L-arginine, Difference (ADMA minus Sucrose), cerebellum, + 100uM Arg, mean): 0.0445 | Kp at 10 min, 62.5 nM ([2]; cerebellum, with 100 µM unlabelled L-arginine, [3H] ADMA + [14C] Sucrose + 100uM Arg, mean, read-out: uptake into cerebellum): 0.0673 | Kp at 10 min, 62.5 nM ([2]; choroid plexus, with 100 µM unlabelled L-arginine, Difference (ADMA minus Sucrose), choroid plexus, + 100uM Arg, individual mice): 0.469 | Kp at 10 min, 62.5 nM ([2]; choroid plexus, with 100 µM unlabelled L-arginine, Difference (ADMA minus Sucrose), choroid plexus, + 100uM Arg, mean): 0.471 | Kp at 10 min, 62.5 nM ([2]; choroid plexus, with 100 µM unlabelled L-arginine, [3H] ADMA + [14C] Sucrose + 100uM Arg, individual mice, read-out: uptake into choroid plexus): 0.609 | Kp at 10 min, 62.5 nM ([2]; choroid plexus, with 100 µM unlabelled L-arginine, [3H] ADMA + [14C] Sucrose + 100uM Arg, mean, read-out: uptake into choroid plexus): 0.616 | Kp at 10 min, 62.5 nM ([2]; frontal cortex, with 100 µM unlabelled L-arginine, Difference (ADMA minus Sucrose), frontal cortex, + 100uM Arg, mean): 0.0598 | Kp at 10 min, 62.5 nM ([2]; frontal cortex, with 100 µM unlabelled L-arginine, [3H] ADMA + [14C] Sucrose + 100uM Arg, mean, read-out: uptake into frontal cortex): 0.0858 | Kp at 10 min, 62.5 nM ([2]; hippocampus, with 100 µM unlabelled L-arginine, Difference (ADMA minus Sucrose), hippocampus, + 100uM Arg, mean): 0.0475 | Kp at 10 min, 62.5 nM ([2]; hippocampus, with 100 µM unlabelled L-arginine, [3H] ADMA + [14C] Sucrose + 100uM Arg, mean, read-out: uptake into hippocampus): 0.0608 | Kp at 10 min, 62.5 nM ([2]; hypothalamus, with 100 µM unlabelled L-arginine, Difference (ADMA minus Sucrose), hypothalamus, + 100uM Arg, individual mice): 0.0699 | Kp at 10 min, 62.5 nM ([2]; hypothalamus, with 100 µM unlabelled L-arginine, Difference (ADMA minus Sucrose), hypothalamus, + 100uM Arg, mean): 0.0777 | Kp at 10 min, 62.5 nM ([2]; hypothalamus, with 100 µM unlabelled L-arginine, [3H] ADMA + [14C] Sucrose + 100uM Arg, individual mice, read-out: uptake into hypothalamus): 0.105 | Kp at 10 min, 62.5 nM ([2]; hypothalamus, with 100 µM unlabelled L-arginine, [3H] ADMA + [14C] Sucrose + 100uM Arg, mean, read-out: uptake into hypothalamus): 0.11 | Kp at 10 min, 62.5 nM ([2]; occipital cortex, with 100 µM unlabelled L-arginine, Difference (ADMA minus Sucrose), occipital cortex, + 100uM Arg, mean): 0.048 | Kp at 10 min, 62.5 nM ([2]; occipital cortex, with 100 µM unlabelled L-arginine, [3H] ADMA + [14C] Sucrose + 100uM Arg, mean, read-out: uptake into occipital cortex): 0.0669 | Kp at 10 min, 62.5 nM ([2]; pineal gland, with unlabelled L-arginine 100 µM, Difference (ADMA minus Sucrose), pineal gland, + 100uM Arg, mean): 0.613 | Kp at 10 min, 62.5 nM ([2]; pineal gland, with unlabelled L-arginine 100 µM, [3H] ADMA + [14C] Sucrose + 100uM Arg, mean, read-out: uptake into pineal gland): 0.915 | Kp at 10 min, 62.5 nM ([2]; pituitary gland, with 100 µM unlabelled L-arginine, Difference (ADMA minus Sucrose), pituitary gland, + 100uM Arg, mean): 0.487 | Kp at 10 min, 62.5 nM ([2]; pituitary gland, with 100 µM unlabelled L-arginine, [3H] ADMA + [14C] Sucrose + 100uM Arg, mean, read-out: uptake into pituitary gland): 0.6 | Kp at 10 min, 62.5 nM ([2]; pons, with 100 µM unlabelled L-arginine, Difference (ADMA minus Sucrose), pons, + 100uM Arg, mean): 0.0483 | Kp at 10 min, 62.5 nM ([2]; pons, with 100 µM unlabelled L-arginine, [3H] ADMA + [14C] Sucrose + 100uM Arg, mean, read-out: uptake into pons): 0.0946 | Kp at 10 min, 62.5 nM ([2]; thalamus, with 100 µM unlabelled L-arginine, Difference (ADMA minus Sucrose), thalamus, + 100uM Arg, mean): 0.0566 | Kp at 10 min, 62.5 nM ([2]; thalamus, with 100 µM unlabelled L-arginine, [3H] ADMA + [14C] Sucrose + 100uM Arg, mean, read-out: uptake into thalamus): 0.0793 | Kp at 10 min, 62.5 nM ([3]; CSF, [3H] ADMA + [14C] Sucrose + 100uM Arg, mean, read-out: uptake into CSF): 0.162 | Kp at 10 min, 62.5 nM ([3]; brain homogenate, Difference (ADMA minus Sucrose), homogenate, + 100uM Arg, mean): 0.0265 | Kp at 10 min, 62.5 nM ([3]; brain homogenate, [3H] ADMA + [14C] Sucrose + 100uM Arg, mean, read-out: uptake, homogenate): 0.063 | Kp at 10 min, 62.5 nM ([3]; pellet, Difference (ADMA minus Sucrose), pellet, + 100uM Arg, individual mice): 0.00309 | Kp at 10 min, 62.5 nM ([3]; pellet, [3H] ADMA + [14C] Sucrose + 100uM Arg, mean, read-out: uptake, pellet): 0.011 | Kp at 10 min, 62.5 nM ([3]; supernatant, Difference (ADMA minus Sucrose), supernatant, + 100uM Arg, mean): 0.0204 | Kp at 10 min, 62.5 nM ([3]; supernatant, [3H] ADMA + [14C] Sucrose + 100uM Arg, mean, read-out: uptake, supernatant): 0.0475 | Difference (ADMA minus Sucrose), homogenate [4, 5]: 0.2688 and 0.161 and 0.1425 and -0.07309
Compound: CN(C)C(N)=NCCC[C@H](N)C(=O)O [ADMA, N^G,N^G-dimethylarginine dihydrochloride]
uptake into caudate nucleus [1]: 0.06709 and 0.08883 and 0.04583 and 0.07378 | uptake into cerebellum [1]: 0.04812 and 0.06526 and 0.1041 and 0.02606 and 0.09306 | uptake into frontal cortex [1]: 0.07007 and 0.07553 and 0.1227 and 0.05236 and 0.1082 | uptake into hippocampus [1]: 0.04437 and 0.05436 and 0.09956 and 0.03726 and 0.0687 | uptake into hypothalamus [1]: 0.1376 and 0.1261 and 0.09757 and 0.08557 | uptake into occipital cortex [1]: 0.04352 and 0.05773 and 0.1002 and 0.05331 and 0.07955 | uptake into pituitary gland [1]: 0.3174 and 0.8724 and 1.123 and 0.09502 and 0.5936 | uptake into pons [1]: 0.0747 and 0.145 and 0.1344 and 0.05028 and 0.06842 | uptake into thalamus [1]: 0.04368 and 0.06682 and 0.145 and 0.05879 and 0.08201 | Difference (ADMA minus Sucrose), homogenate ([4]; 2.5 mins, individual mouse): 0.08009 and 0.1215 and 0.06334 and 0.05481 and 0.07702 | Difference (ADMA minus Sucrose), pellet ([4]; 2.5 mins, individual mouse): 0.01248 and 0.007546 and 0.01055 and 0.0124 | Difference (ADMA minus Sucrose), supernatant ([4]; 2.5 mins, individual mouse): 0.05051 and 0.03514 and 0.04142 and 0.05329 | [3H] ADMA and [14C] Sucrose uptake, homogenate ([4]; 2.5 mins, individual mouse): 0.09289 and 0.1482 and 0.07368 and 0.06461 and 0.09146 | [3H] ADMA and [14C] Sucrose uptake, pellet ([4]; 2.5 mins, individual mouse): 0.01492 and 0.009191 and 0.01385 and 0.01522 | [3H] ADMA and [14C] Sucrose uptake, supernatant ([4]; 2.5 mins, individual mouse): 0.06123 and 0.0402 and 0.05083 and 0.0645 | Difference (ADMA minus Sucrose), homogenate ([4]; 20 mins, individual mouse): 0.2153 and 0.186 and 0.3039 and 0.2292 and 0.1075 | Difference (ADMA minus Sucrose), pellet ([4]; 20 mins, individual mouse): 0.01581 and 0.02784 and 0.03159 and 0.04237 and 0.006518 | Difference (ADMA minus Sucrose), supernatant ([4]; 20 mins, individual mouse): 0.1074 and 0.1722 and 0.2036 and 0.1573 and 0.05863 | [3H] ADMA and [14C] Sucrose uptake, homogenate ([4]; 20 mins, individual mouse): 0.2383 and 0.2004 and 0.3388 and 0.2498 and 0.142 | [3H] ADMA and [14C] Sucrose uptake, pellet ([4]; 20 mins, individual mouse): 0.01706 and 0.03 and 0.03434 and 0.04519 and 0.01122 | [3H] ADMA and [14C] Sucrose uptake, supernatant ([4]; 20 mins, individual mouse): 0.1162 and 0.1882 and 0.2293 and 0.1698 and 0.07807 | Difference (ADMA minus Sucrose), homogenate ([4]; 30 mins, individual mice): 0.07039 and 0.3122 and 0.07479 and 0.04539 and 0.1073 | Difference (ADMA minus Sucrose), pellet ([4]; 30 mins, individual mice): 0.01163 and 0.01136 and 0.007805 and 0.01411 | Difference (ADMA minus Sucrose), supernatant ([4]; 30 mins, individual mice): 0.1199 and 0.1088 and 0.02622 and 0.04075 and 0.06521 | Difference (ADMA minus Sucrose), pellet [4, 5]: 0.02507 and 0.05085 and 0.009734 and 0.01917 and -0.0657 | Difference (ADMA minus Sucrose), supernatant [4, 5]: 0.07602 and 0.1167 and 0.08919 and 0.1193 and 0.02984
